The nature of series [1]: Hydrolysis of ester 19 into acid 21 in the presence of melanoma cells and culture medium (HPLC-MS). The format is in vitro ADME. The note with it: after 72 h in the presence of melanoma cells and culture medium. From the text:
Then, we turned our attention to the SAR study of the position 4 of the diazepine ring, keeping constant the 4-bromophenyl group at R^2 (i.e. compounds 13–17 and 19–22). […] Introduction of a ramified isobutyl chain (compound 15) led also to a loss of the activity (entry 13, Table 1). […] In the same way, a less flexible chain bearing an alkyne group (compound 14) was not tolerated, as well as a long chain (compound 22) (Table 1, entries 12 and 20 respectively).

Series [2] relates to NIH-3T3 non-cancerous cells. Put plainly: Neutral red uptake (NRU) toxicity assay, NIH-3T3. In kind it is cell-based. The note with it: Mus musculus, NIH3T3, 72 h, non-cancerous mouse fibroblasts. The protocol:
(§1) Melanoma human cancer cell line (A375 and MDA-MB-435) were obtained from ATCC. The NIH-3T3 cell line was generously gifted by the ANSM (French National Agency for Medicines and Health Products Safety, Vendargues, France). Cells were cultured in Dulbecco’s Modified Eagle Medium (DMEM, Sigma Aldrich) supplemented with 10% heat-inactivated foetal calf serum (FCS, Gibco), 2 mM glutamax (Gibco), 100 IU/mL penicillin G sodium (Sigma Aldrich), 100 lU/mL streptomycin sulphate (Sigma Aldrich). The cells were allowed to grow at 37 °C in a fully humidified atmosphere containing 5% CO2.
(§2) A viability assay was used to evaluate the cytotoxic activity on A375 and MDA-MB-435 melanoma cells as previously described. According to OCDE/ICCVAM guidance n°129, NRU assay was also used to evaluate the toxicity on the non-cancerous NIH-3T3 cells. Cells were seeded at a final concentration of 2000 cells/well (A375), 3000 cells/well (NIH-3T3) or 7500 cells/well (MDA-MB-435) in 96-well microtiter plates for 24 h. Then, cells were exposed to two negative controls (1% DMSO in culture medium (vehicle) and culture medium alone), or to different compounds freshly dissolved in DMSO, in a range of concentration from 0.01 to 40 µM (six wells per concentration). After 72 h of incubation, cells were stained with new medium containing 50 µg/mL of neutral red (3-amino-7-dimethylamino-2-methylphenazine hydrochloride, Sigma Aldrich) at 37 °C for 2 h. The neutral red medium solution was then removed and the wells were washed with PBS. Finally, 100 µL of solution containing ethanol, acetic acid and water (50/1/49 v/v/v respectively) were added into the wells and the absorbance was measured at 540 nm using the microplate reader 352 Multiscan MS (Labsystems). Cell survival rates were normalised to the absorbance values of untreated control cells. IC50 was obtained using a logistic regression model on Graphpad Prism 5.0 software. Results are given as the mean ± standard deviation (SD) of three independent experiments. Statistical analysis was performed using the Student’s t-test.
Then, all active compounds on the two melanoma cell lines (IC50 < 40 µM) were assessed on the NIH-3T3 mouse fibroblast cell line, in order to check the toxicity of our compounds on non-cancerous cells. […] As a possible modification of the mechanism of action was hypothesised for these two derivatives (see above), this phenomenon could probably be also correlated with the cytotoxicity observed on the NIH-3T3 cell line.

For series [3], the system named is A375 melanoma cells. Put plainly: Neutral red uptake (NRU) viability assay, A375. The format is cell-based, human. The note with it: Homo sapiens, A-375, 72 h, mean ± SD of three experiments. The protocol: as §1, §2
Series [4] concerns MDA-MB-435 melanoma cells. Nature of the series: Neutral red uptake (NRU) viability assay, MDA-MB-435. The conditions noted are these: Homo sapiens, MDA-MB-435; NRU assay, 72 h, mean ± SD of three experiments. The format is cell-based, human. The protocol: as §1, §2

SMILES strings stand for the structures.

As usually defined, the IC50 is the point on the concentration scale where inhibition reaches its midpoint. A lower IC50 goes with higher potency. In general, melting point refers to the temperature, or range, at which the solid turns liquid. Take `O=C(C[C@@H]1NC(c2ccc(Br)cc2)=Nc2nc3ccccn3c2C1=O)OCc1ccccc1` [Compound 19, (4S)-benzyl [2-(4-bromophenyl)-5-oxo-4,5-dihydro-3H-pyrido[1’,2’:1,2]imidazo[4,5-d][1,3]diazepin-4-yl]acetate]: the melting point lay within 72.5 to 73.5 °C. The “hydrolysis rate (conversion into acid 21)” value in series [1] amounted to 65.5%. This compound also had a half-maximal inhibitory concentration (IC50) in series [2] of more than 40 µM. Moreover, in series [3], inhibition was half-maximal at 9.78 ± 0.83 µM (IC50). Besides, the IC50 in series [4] amounted to 19.4 ± 0.64 µM.

Values taken from paper PMC7170309, “Imidazopyridine-fused [1,3]diazepinones: modulations of positions 2 to 4 and their impacts on the anti-melanoma activity” (Journal of Enzyme Inhibition and Medicinal Chemistry, 2020).
